These results are taken from patent US9562035B2, “Benzamide derivative useful as FASN inhibitors for the treatment of cancer” (Janssen Pharmaceutica NV, priority 2013, dated 2017).

Bounds are passed on as bounds.

The target of assay [1] is T1, hFASN enzyme (full length) (Homo sapiens, UniProt P49327).
T1 construct: 10 μL hFASN enzyme (full length, 300 ng, purified in house); made in house
In words: Fatty Acid Synthase (FASN) Inhibition Scintillation Proximity Assay. The class given is biochemical. As to conditions: for IC50: mean where tested more than once, ~ = standard error of pIC50 larger than 0.5; for inhibition at 10 µM: read-out: FASN % Effect @1E−05M. In short, it runs like this: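 Purified full-length human FASN (300 ng) incubated 60 min at room temperature with NADPH, [3H]-acetyl-CoA and malonyl-CoA in 100 mM KH2PO4 pH 7.5, 1 mM DTT; compound at 30 μM to 0.01 μM. [3H]-palmitate captured by SPA imaging beads; IC50 from 4-parameter fit, reported as pIC50.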
A general note: Scintillation proximity formats need no separation of bound from free tracer.

The target in assay [2] is T2, FASN Keto-reductase Domain (Homo sapiens, UniProt P49327).
T2 construct: 10 μL hFASN enzyme (full length, 300 ng, purified in house) and 360 μM NADPH; made in house
T2 sequence (P49327 whole entry, the tested form may be a part): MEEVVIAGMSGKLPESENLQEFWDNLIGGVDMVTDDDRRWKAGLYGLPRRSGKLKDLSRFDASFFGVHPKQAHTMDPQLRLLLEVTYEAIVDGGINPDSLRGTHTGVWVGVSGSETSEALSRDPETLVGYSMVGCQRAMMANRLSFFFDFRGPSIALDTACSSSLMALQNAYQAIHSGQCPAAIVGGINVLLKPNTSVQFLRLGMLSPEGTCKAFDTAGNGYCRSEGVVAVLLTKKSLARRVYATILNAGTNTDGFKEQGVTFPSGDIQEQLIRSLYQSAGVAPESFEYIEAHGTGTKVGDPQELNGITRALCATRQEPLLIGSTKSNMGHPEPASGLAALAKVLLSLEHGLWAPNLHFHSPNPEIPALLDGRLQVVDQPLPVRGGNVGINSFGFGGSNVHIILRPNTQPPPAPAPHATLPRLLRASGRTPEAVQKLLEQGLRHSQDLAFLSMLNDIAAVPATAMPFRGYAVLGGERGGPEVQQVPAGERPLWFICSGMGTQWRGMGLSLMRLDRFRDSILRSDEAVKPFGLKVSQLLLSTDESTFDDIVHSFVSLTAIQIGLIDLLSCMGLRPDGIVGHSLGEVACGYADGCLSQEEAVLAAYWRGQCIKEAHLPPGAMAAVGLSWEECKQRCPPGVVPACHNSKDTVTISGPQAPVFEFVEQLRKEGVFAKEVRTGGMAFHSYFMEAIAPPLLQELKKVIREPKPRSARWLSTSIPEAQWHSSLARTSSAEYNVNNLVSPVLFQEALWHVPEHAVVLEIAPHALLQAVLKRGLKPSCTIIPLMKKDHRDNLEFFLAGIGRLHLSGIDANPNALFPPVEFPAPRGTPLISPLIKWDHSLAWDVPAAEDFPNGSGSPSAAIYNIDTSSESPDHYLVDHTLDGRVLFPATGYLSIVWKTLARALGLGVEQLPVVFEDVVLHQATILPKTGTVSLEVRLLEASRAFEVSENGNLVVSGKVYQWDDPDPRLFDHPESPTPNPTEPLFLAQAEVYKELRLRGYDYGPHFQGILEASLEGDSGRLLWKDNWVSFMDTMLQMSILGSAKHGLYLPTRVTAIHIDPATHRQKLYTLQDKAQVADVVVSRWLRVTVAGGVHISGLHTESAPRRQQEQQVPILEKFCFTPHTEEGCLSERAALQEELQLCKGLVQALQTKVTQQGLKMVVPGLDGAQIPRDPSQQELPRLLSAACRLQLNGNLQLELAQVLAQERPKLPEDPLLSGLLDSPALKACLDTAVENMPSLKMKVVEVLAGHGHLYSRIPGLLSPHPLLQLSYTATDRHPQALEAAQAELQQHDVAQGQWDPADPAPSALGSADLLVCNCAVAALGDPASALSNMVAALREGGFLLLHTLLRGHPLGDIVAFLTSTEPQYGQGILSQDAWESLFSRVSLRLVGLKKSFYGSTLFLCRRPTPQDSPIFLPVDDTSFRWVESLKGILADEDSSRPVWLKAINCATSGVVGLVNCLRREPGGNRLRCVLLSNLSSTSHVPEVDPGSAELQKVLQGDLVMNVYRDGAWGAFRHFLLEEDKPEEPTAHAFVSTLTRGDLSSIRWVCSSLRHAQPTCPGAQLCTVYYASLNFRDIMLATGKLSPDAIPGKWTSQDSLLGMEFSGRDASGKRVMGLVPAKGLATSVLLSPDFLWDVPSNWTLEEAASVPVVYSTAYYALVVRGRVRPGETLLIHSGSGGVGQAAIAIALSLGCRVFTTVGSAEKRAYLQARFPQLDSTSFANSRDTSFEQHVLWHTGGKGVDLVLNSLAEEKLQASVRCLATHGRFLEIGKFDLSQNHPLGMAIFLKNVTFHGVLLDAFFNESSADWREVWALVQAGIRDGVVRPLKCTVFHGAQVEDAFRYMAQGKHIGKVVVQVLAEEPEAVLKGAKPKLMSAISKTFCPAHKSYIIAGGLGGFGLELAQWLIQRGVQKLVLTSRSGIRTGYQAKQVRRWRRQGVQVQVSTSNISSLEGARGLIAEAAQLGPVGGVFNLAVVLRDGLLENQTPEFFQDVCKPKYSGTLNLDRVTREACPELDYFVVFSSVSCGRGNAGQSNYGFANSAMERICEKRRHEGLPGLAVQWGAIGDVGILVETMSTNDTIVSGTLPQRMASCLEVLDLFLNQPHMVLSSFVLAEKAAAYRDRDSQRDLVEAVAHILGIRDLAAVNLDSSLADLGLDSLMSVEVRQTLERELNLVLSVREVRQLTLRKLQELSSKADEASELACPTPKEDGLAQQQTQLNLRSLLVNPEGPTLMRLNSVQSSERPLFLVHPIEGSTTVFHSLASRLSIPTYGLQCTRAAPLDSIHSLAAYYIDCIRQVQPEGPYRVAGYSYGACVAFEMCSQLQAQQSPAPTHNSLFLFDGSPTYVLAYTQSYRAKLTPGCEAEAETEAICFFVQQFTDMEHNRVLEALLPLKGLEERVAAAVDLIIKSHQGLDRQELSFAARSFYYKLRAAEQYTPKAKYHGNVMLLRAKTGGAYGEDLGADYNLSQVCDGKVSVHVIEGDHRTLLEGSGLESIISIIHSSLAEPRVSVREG
In words: Fatty Acid Synthase Keto-Reductase Domain (FASN KR) Inhibition. The format is biochemical. As to conditions: mean where tested more than once; read-out: FASN K-R Domain pIC50 (converted). An outline of the steps: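 Full-length human FASN (300 ng) in 100 mM KH2PO4 pH 7.5 with 360 μM NADPH and 180 mM ethyl acetoacetate (stock); A340 decrease read over 20 min at room temperature.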

Assay [3] deals with A2780 ovarian cells. In words: A2780 Ovarian Cell Proliferation Assay in Lipid Reduced Medium, without Palmitate. The class given is cell-based. As to conditions: Homo sapiens, A2780; lipid reduced medium, without palmitate, 96 h, MTT; read-out: Proliferation A2780 w/o Palmitate pIC50 (converted). An outline of the steps: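 A2780 cells were seeded in 10% FCS medium and switched next day to 10% lipid-reduced serum without palmitate. Compounds at 0.01–30 μM were added with 0.2% DMSO, 0.2% fatty-acid-free BSA and 0.25% ethanol final. After 96 h, MTT absorbance at 544 nm was normalized to plate controls, and IC50/pIC50 came from a 4-parameter logistic fit.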

Assay [4] relates to A2780 ovarian cells. In words: A2780 Ovarian Cell Proliferation Assay in Lipid Reduced Medium, with Palmitate (control). The class given is cell-based. As to conditions: Homo sapiens, A2780; lipid reduced medium, 25 μM palmitate, 96 h, MTT; read-out: Proliferation A2780 with Palmitate pIC50 (converted). An outline of the steps: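 A2780 cells were seeded in RPMI1640 with 10% FCS, then switched next day to medium with 10% lipid-reduced serum. Compound was added with final 25 μM palmitate, 0.2% fatty-acid-free BSA and 0.2% DMSO, and incubated 96 h at 37 °C. Read-out was MTT absorbance at 544 nm; pIC50 = −log(IC50) from curve fit.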

T1 sequence (P49327 whole entry): as the sequence (P49327 whole entry, the tested form may be a part) above

`Cc1ccc(C(=O)N2CCC(c3ccc(-c4cnn(C)c4)cc3)CC2)cc1NC(=O)C1CCNCC1` [Compound 150, N-(2-methyl-5-(4-(4-(1-methyl-1H-pyrazol-4-yl)phenyl)piperidine-1-carbonyl)phenyl)piperidine-4-carboxamide]: the IC50 is 43.7 nM in assay [1], 155 nM in assay [2], 479 nM in assay [3] and above 10000 nM in assay [4]. Also, the inhibition at 10 µM in assay [1] came out at 110%.

Consider `CSc1ccc(C(=O)Nc2cc(C(=O)N3CCC(c4ccc(-c5cnn(C)c5)cc4)CC3)ccc2C)cc1` [Compound 126, N-(2-methyl-5-(4-(4-(1-methyl-1H-pyrazol-4-yl)phenyl)piperidine-1-carbonyl)phenyl)-4-(methylthio)benzamide], for which the IC50 in assay [1] was 30.2 nM; in assay [2] it was 32.4 nM; in assay [3], 26.3 nM; in assay [4] it was above 10000 nM. For the same molecule, the inhibition at 10 µM in assay [1] was determined as 110%.

As to `Cc1ccc(C(=O)N2CC(c3ccc(-c4ccnn4C)cc3)C2)cc1NC(=O)c1ccc(NC2CCC2)nc1` [Compound 62, 6-(cyclobutylamino)-N-(2-methyl-5-(3-(4-(1-methyl-1H-pyrazol-5-yl)phenyl)azetidine-1-carbonyl)phenyl)nicotinamide], the IC50 in assay [1] was 16.2 nM; in assay [2], 51.3 nM; in assay [3], 74.1 nM; in assay [4] it was 4170 nM. Besides, in assay [1], the inhibition at 10 µM amounted to 103%.

In the case of `Cc1ccc(C(=O)N2CC[C@H](c3ccc(-n4ccnc4)cc3)[C@@H](C)C2)cc1NC(=O)c1ccc(Cl)nc1` (racemic) [Compound 54, (±)-N-(5-(4-((3R,4S)-4-(1H-imidazol-1-yl)phenyl)-3-methylpiperidine-1-carbonyl)-2-methylphenyl)-6-chloronicotinamide], the IC50 is 234 nM in assay [1], 288 nM in assay [2], 204 nM in assay [3] and above 10000 nM in assay [4]. Also, the inhibition at 10 µM in assay [1] turned out to be 104%.

Consider `Cc1ccc(C(=O)N2CCC(c3ccc(-c4cccc(F)c4)cc3)CC2)cc1NC(=O)c1ccc(NC(C)C)nc1` [Compound 230, N-(5-(4-(3′-fluoro-[1,1′-biphenyl]-4-yl)piperidine-1-carbonyl)-2-methylphenyl)-6-(isopropylamino)nicotinamide], for which the IC50 in assay [1] is 363 nM; in assay [2], 525 nM; in assay [3], 692 nM; in assay [4], 2510 nM. Further, the inhibition at 10 µM in assay [1] amounted to 79%.

As for `Cc1ccc(C(=O)N2CCC(c3ccc(-c4cnn(C)c4)cc3)CC2)cc1NC(=O)c1cc(F)ccc1C` [Compound 137, 5-fluoro-2-methyl-N-(2-methyl-5-(4-(4-(1-methyl-1H-pyrazol-4-yl)phenyl)piperidine-1-carbonyl)phenyl)benzamide], the IC50 in assay [1] was 55 nM; in assay [2], 240 nM; in assay [3], 417 nM; in assay [4] it was above 10000 nM. In addition, the inhibition at 10 µM in assay [1] worked out at 103%.

As to `Cc1ccc(C(=O)N2CCC(c3ccc(-c4cnn(C)c4)cc3)CC2)cc1NC(=O)C1CCN(C(=O)C2CC2)C1` (stereo not shown) [Compound 220, 1-(cyclopropanecarbonyl)-N-(2-methyl-5-(4-(4-(1-methyl-1H-pyrazol-4-yl)phenyl)piperidine-1-carbonyl)phenyl)pyrrolidine-3-carboxamide], the IC50 in assay [1] was 67.6 nM; in assay [2], 174 nM; in assay [3], 95.5 nM; in assay [4], above 10000 nM. Moreover, in assay [1], the inhibition at 10 µM turned out to be 110%.

`CC(C)Nc1ccc(C(=O)Nc2cc(C(=O)N3CC(c4ccc(-c5ccc6cnccc6c5)cc4)C3)ccc2Cl)cn1` [Compound #75, N-(2-chloro-5-(3-(4-(isoquinolin-6-yl)phenyl)azetidine-1-carbonyl)phenyl)-6-(isopropylamino)nicotinamide]: the IC50 in assay [1] is 53.7 nM; in assay [2], 55 nM; in assay [3], 135 nM; in assay [4] it was above 15100 nM. Further, the inhibition at 10 µM in assay [1] was found to be 92%.

As to `Cc1ccc(C(=O)N2CC(c3ccc(-c4cnn(C)c4)cc3)C2)cc1NC(=O)c1ccc(N2CCN(C)CC2)nc1` [Compound 141, N-(2-methyl-5-(3-(4-(1-methyl-1H-pyrazol-4-yl)phenyl)azetidine-1-carbonyl)phenyl)-6-(4-methylpiperazin-1-yl)nicotinamide], the IC50 in assay [1] is 21.9 nM; in assay [2], 72.4 nM; in assay [3], 36.3 nM; in assay [4] it was 6610 nM. Besides, the inhibition at 10 µM in assay [1] was determined as 110%.

Take `Cc1ccc(C(=O)N2CCC(c3ccc(-c4cnn(C)c4)cc3)CC2)cc1NC(=O)c1ccc(C#N)cc1` [Compound 138, 4-cyano-N-(2-methyl-5-(4-(4-(1-methyl-1H-pyrazol-4-yl)phenyl)piperidine-1-carbonyl)phenyl)benzamide]: the IC50 in assay [1] is 91.2 nM; in assay [2], 195 nM; in assay [3] it was 331 nM; in assay [4] it was above 10000 nM. The inhibition at 10 µM in assay [1] was determined as 107%.

With `Cc1ccc(C(=O)N2CCC(c3ccc(-c4cnn(C)c4)cc3)CC2)cc1NC(=O)c1ccc(C#N)cc1F` [Compound 129, 4-cyano-2-fluoro-N-(2-methyl-5-(4-(4-(1-methyl-1H-pyrazol-4-yl)phenyl)piperidine-1-carbonyl)phenyl)benzamide], the IC50 is 22.9 nM in assay [1], 34.7 nM in assay [2], 21.4 nM in assay [3] and above 10000 nM in assay [4]. The inhibition at 10 µM in assay [1] turned out to be 104%.

Regarding `Cc1ccc(C(=O)N2CCC(c3ccc(-c4cnn(C5CCOCC5)c4)cc3)CC2)cc1NC(=O)c1ccc(NC(C)C)nc1` [Compound 217], the IC50 was 174 nM in assay [1], 501 nM in assay [2], 214 nM in assay [3] and above 10000 nM in assay [4]. In assay [1], the inhibition at 10 µM was determined as 105%.

Turning to `Cc1ccc(C(=O)N2CCC(c3ccc(-n4ccnc4)cc3)C(C)(C)C2)cc1NC(=O)c1ccc(Cl)nc1` (stereo not shown) [Compound #6, N-(5-(4-(4-(1H-imidazol-1-yl)phenyl)-3,3-dimethylpiperidine-1-carbonyl)-2-methylphenyl)-6-chloronicotinamide], the IC50 in assay [1] is 61.7 nM; in assay [2], 89.1 nM; in assay [3], 234 nM; in assay [4] it was above 10000 nM. For the same molecule, the inhibition at 10 µM in assay [1] came out at 104%.

For the molecule `Cc1ccc(C(=O)N2CC(c3ccc(-c4ccnn4C)cc3)C2)cc1NC(=O)c1ccc(N(C)C(C)C)nc1` [Compound 60, 6-(isopropyl(methyl)amino)-N-(2-methyl-5-(3-(4-(1-methyl-1H-pyrazol-5-yl)phenyl)azetidine-1-carbonyl)phenyl)nicotinamide], the IC50 in assay [1] is 19.5 nM; in assay [2], 28.8 nM; in assay [3], 51.3 nM; in assay [4], 2750 nM. In assay [1], the inhibition at 10 µM is 103%.

With `Cc1ccc(C(=O)N2CC[C@H](c3ccc(-c4ccnn4C)cc3)[C@H](C)C2)cc1NC(=O)c1ccc(Cl)nc1` (racemic) [Compound #111, (±)-6-chloro-N-(2-methyl-5-((3S,4S)-3-methyl-4-(4-(1-methyl-1H-pyrazol-5-yl)phenyl)piperidine-1-carbonyl)phenyl)nicotinamide], the IC50 in assay [1] was 513 nM; in assay [2] it was 1780 nM; in assay [3] it was 1620 nM; in assay [4], 4470 nM. Besides, in assay [1], the inhibition at 10 µM is 96%.

Take `Cc1ccc(C(=O)N2CC(c3ccc(-c4cnn(C)c4)cc3)C2)cc1NC(=O)c1cnc(N2CCOCC2)nc1` [Compound 159, N-(2-methyl-5-(3-(4-(1-methyl-1H-pyrazol-4-yl)phenyl)azetidine-1-carbonyl)phenyl)-2-morpholinopyrimidine-5-carboxamide]: the IC50 in assay [1] is 22.9 nM; in assay [2], 33.9 nM; in assay [3], around 5.75 nM; in assay [4], above 10000 nM. The inhibition at 10 µM in assay [1] is 104%.

For the molecule `Cc1ccc(C(=O)N2CCC(c3ccc4ccncc4c3)CC2)cc1NC(=O)c1ccc(NC(C)C)nc1` [Compound 28, 6-(isopropylamino)-N-(5-(4-(isoquinolin-7-yl)piperidine-1-carbonyl)-2-methylphenyl)nicotinamide], the IC50 was 174 nM in assay [1], 282 nM in assay [2], around 204 nM in assay [3] and 2450 nM in assay [4]. For the same molecule, the inhibition at 10 µM in assay [1] is 101%.
